For one compound, EC50 results are on record in paper PMC7494392 (Journal of Pain Research, 2020).

In this experiment the target is TRPV1 (Rattus norvegicus, UniProt O35433). The experiment can be described thus: Fura-2 calcium imaging in rat DRG neurons. In kind it is cell-based.
TRPV1, sequence (O35433 whole entry): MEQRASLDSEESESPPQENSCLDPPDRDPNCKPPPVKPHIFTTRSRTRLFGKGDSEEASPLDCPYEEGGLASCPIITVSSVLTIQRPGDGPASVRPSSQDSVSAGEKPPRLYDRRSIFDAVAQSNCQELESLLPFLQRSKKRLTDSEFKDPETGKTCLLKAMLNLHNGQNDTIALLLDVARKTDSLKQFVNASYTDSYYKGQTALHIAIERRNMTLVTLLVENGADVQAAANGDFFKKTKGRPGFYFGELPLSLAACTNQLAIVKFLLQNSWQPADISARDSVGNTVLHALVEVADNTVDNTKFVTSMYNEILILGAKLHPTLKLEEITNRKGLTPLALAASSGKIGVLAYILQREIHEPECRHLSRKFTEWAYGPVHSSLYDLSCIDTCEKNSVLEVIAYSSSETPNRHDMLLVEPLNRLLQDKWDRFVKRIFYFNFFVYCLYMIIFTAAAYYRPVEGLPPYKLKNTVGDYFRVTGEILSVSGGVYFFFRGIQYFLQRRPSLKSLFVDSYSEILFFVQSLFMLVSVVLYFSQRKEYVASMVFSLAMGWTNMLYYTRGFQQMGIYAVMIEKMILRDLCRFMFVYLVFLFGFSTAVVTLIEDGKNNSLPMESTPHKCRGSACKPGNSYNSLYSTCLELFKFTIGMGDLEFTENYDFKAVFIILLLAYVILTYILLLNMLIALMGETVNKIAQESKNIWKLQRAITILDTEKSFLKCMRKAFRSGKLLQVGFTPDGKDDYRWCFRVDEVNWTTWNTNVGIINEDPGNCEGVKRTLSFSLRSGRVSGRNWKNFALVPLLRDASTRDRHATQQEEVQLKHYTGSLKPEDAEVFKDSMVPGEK

As usually defined, the EC50 is the concentration at which the effect is half-maximal. `C=C(C)[C@@H]1CCC(C)=C[C@H]1c1c(O)cc(CCCCC)cc1O` [CBD, Cannabidiol]: the EC50 lay within 1 to 10 µM.
